Measurements taken from ChEMBL document CHEMBL5726776, “3,5-diamino-6-chloro-N-(N-(4-phenylbutyl)carbamimidoyl) pyrazine-2-carboxamide compounds” (2019).

Experiment: In Vitro Measure of Sodium Channel Blocking Activity and Reversibility: One assay used to assess mechanism of action and/or potency of the compounds of the present invention involves the determination of lumenal drug inhibition of airway epithelial sodium currents measured under short circuit current (ISC) using airway epithelial monolayers mounted in Using chambers. This assay is described in detail in Hirsh, A. J., Zhang, J., Zamurs, A., et al. Pharmacological properties of N-(3,5-diamino-6-chloropyrazine-2-carbonyl)-N′-4-[4-(2,3-dihydroxypropoxy)phenyl]butyl-guanidine methanesulfonate (552-02), a novel epithelial sodium channel blocker with potential clinical efficacy for CF lung disease. J. Pharmacol. Exp. Ther. 2008; 325(1): 77-88. Cells obtained from freshly excised human, dog, sheep or rodent airways are seeded onto porous 0.4 micron Snapwell™ Inserts (CoStar), cultured at air-liquid interface (ALI) conditions in hormonally defined media, and assayed for sodium transport activity (ISC) while bathed in Krebs Bicarbonate Ringer (KBR) in Using chambers. All test drug additions are to the lumenal bath with half-log dose addition protocols (from 1×10−11 M to 3×10−5 M), and the cumulative change in ISC (inhibition) recorded. All drugs are prepared in dimethyl sulfoxide as stock solutions at a concentration of 1×10−2 M and stored at −20° C. […] After the maximal concentration ([…]) is administered, the lumenal bath is exchanged three times with fresh drug-free KBR solution, and the resultant ISC measured after each wash for approximately 5 minutes in duration. Reversibility is defined as the percent return to the baseline value for sodium current after the third wash. All data from the voltage clamps are collected via a computer interface and analyzed off-line.Dose-effect relationships for all compounds are considered and analyzed by the Prism 3.0 program.

`N=C(NCCCCc1ccc(CC[C@H](NCCCN(C[C@H](O)[C@@H](O)[C@H](O)[C@H](O)CO)C[C@H](O)[C@@H](O)[C@H](O)[C@H](O)CO)C(N)=O)c2c1CCCC2)NC(=O)c1nc(Cl)c(N)nc1N` and `N=C(NCCCCc1ccc(C[C@H](NCCCN(C[C@H](O)[C@@H](O)[C@H](O)[C@H](O)CO)C[C@H](O)[C@@H](O)[C@H](O)[C@H](O)CO)C(N)=O)c2c1CCCC2)NC(=O)c1nc(Cl)c(N)nc1N` are within 1.5-fold of each other in IC50: 7.3 nM for the first, 5.5 nM for the second.

First: N=C(NCCCCc1ccc(CC[C@H](NCCCN(C[C@H](O)[C@@H](O)[C@H](O)[C@H](O)CO)C[C@H](O)[C@@H](O)[C@H](O)[C@H](O)CO)C(N)=O)cc1)NC(=O)c1nc(Cl)c(N)nc1N
Second: N=C(NCCCCc1ccc(C[C@H](NCCCN(C[C@H](O)[C@@H](O)[C@H](O)[C@H](O)CO)C[C@H](O)[C@@H](O)[C@H](O)[C@H](O)CO)C(N)=O)cc1)NC(=O)c1nc(Cl)c(N)nc1N
The IC50 of the first is 3.4-fold lower: 10.6 nM for the first, 35.6 nM for the second. The first is the more potent here.

`CCCCCCN(CCCN[C@@H](CCc1ccc(CCCCNC(=N)NC(=O)c2nc(Cl)c(N)nc2N)cc1)C(N)=O)C[C@H](O)[C@@H](O)[C@H](O)[C@H](O)CO` and `CCCCCCN(CCCN[C@@H](Cc1ccc(CCCCNC(=N)NC(=O)c2nc(Cl)c(N)nc2N)cc1)C(N)=O)C[C@H](O)[C@@H](O)[C@H](O)[C@H](O)CO` are within 1.5-fold of each other in IC50: 2.6 nM for the first, 2.9 nM for the second.

Going from `N=C(NCCCCc1ccc2cc(CC[C@H](NCCCN(C[C@H](O)[C@@H](O)[C@H](O)[C@H](O)CO)C[C@H](O)[C@@H](O)[C@H](O)[C@H](O)CO)C(N)=O)ccc2c1)NC(=O)c1nc(Cl)c(N)nc1N` to `N=C(NCCCCc1ccc2cc(C[C@H](NCCCN(C[C@H](O)[C@@H](O)[C@H](O)[C@H](O)CO)C[C@H](O)[C@@H](O)[C@H](O)[C@H](O)CO)C(N)=O)ccc2c1)NC(=O)c1nc(Cl)c(N)nc1N`, the IC50 rises from 12.5 nM to 27.4 nM (2.2-fold). The first is the more potent here.

Compared with `CCCCCCN(CCCN[C@@H](CCc1ccc(CCCCNC(=N)NC(=O)c2nc(Cl)c(N)nc2N)c2ccccc12)C(N)=O)C[C@H](O)[C@@H](O)[C@H](O)[C@H](O)CO`, `CCCCCCN(CCCN[C@@H](Cc1ccc(CCCCNC(=N)NC(=O)c2nc(Cl)c(N)nc2N)c2ccccc12)C(N)=O)C[C@H](O)[C@@H](O)[C@H](O)[C@H](O)CO` is 1.6-fold lower in IC50: 14.3 nM for the first, 8.8 nM for the second. The second is the more potent here.

`CCCCCCN(CCCN[C@@H](Cc1ccc(CCCCNC(=N)NC(=O)c2nc(Cl)c(N)nc2N)c2c1CCCC2)C(N)=O)C[C@H](O)[C@@H](O)[C@H](O)[C@H](O)CO` and `CCCCCCN(CCCN[C@@H](Cc1ccc2cc(CCCCNC(=N)NC(=O)c3nc(Cl)c(N)nc3N)ccc2c1)C(N)=O)C[C@H](O)[C@@H](O)[C@H](O)[C@H](O)CO` are within 1.5-fold of each other in IC50: 8.4 nM for the first, 11.3 nM for the second.

Going from `CCCCCCN(CCCN[C@@H](CCc1ccc2cc(CCCCNC(=N)NC(=O)c3nc(Cl)c(N)nc3N)ccc2c1)C(N)=O)C[C@H](O)[C@@H](O)[C@H](O)[C@H](O)CO` to `N=C(NCCCCc1ccc(CC[C@H](NCCCN(C[C@H](O)[C@@H](O)[C@H](O)[C@H](O)CO)C[C@H](O)[C@@H](O)[C@H](O)[C@H](O)CO)C(N)=O)c2ccccc12)NC(=O)c1nc(Cl)c(N)nc1N`, the IC50 rises from 6 nM to 24 nM (4-fold).

With `N=C(NCCCCc1ccc(C[C@H](NCCCN(C[C@H](O)[C@@H](O)[C@H](O)[C@H](O)CO)C[C@H](O)[C@@H](O)[C@H](O)[C@H](O)CO)C(N)=O)c2ccccc12)NC(=O)c1nc(Cl)c(N)nc1N` the IC50 was 40.8 nM.
